# Like-named read-outs stand apart in the source and are kept apart here.
# Assays:
# [1] = −20° C., tightly closed, 1.5 month
# Method: Dapagliflozin was stored at −20° C., tightly closed. After being stored for 1.5 month, it was characterized by XRPD, MDSC and TGA to check if it is stable.
# [2] = Hygroscopicity by Dynamic Vapor Sorption (DVS), sorption/desorption profile; assay type: physicochemical; details: for appearance of sample after DVS testing: after DVS at 25° C., 0-95% relative humidity
# Method: (§1) The preparation of lactose co-crystal and asparagine co-crystal were scaled up and repeated (about 400 mg of dapagliflozin free form was dissolved in 26 ml of IPA) and XRPD, PLM, TGA, DSC, NMR and DVS analyses were conducted for physicochemical properties evaluation. Before physicochemical properties evaluation, the solids precipitated out were isolated and dried off at 40° C. for 4 hours in vacuum drier. After hygroscopicity test, the sample was retested by XRPD to determine if any form transformation during the DVS test.
# (§2) The sorption/desorption profiles of dapagliflozin Form I were tested at 25° C. under 0-95% relative humidity. […] This sample was tested by XRPD.
# [3] = XRPD after DVS at 25° C., 0-95% relative humidity
# Method: as §1, §2
# [4] = DVS 25° C., cycle 1, target 0.0 % P/Po
# [5] = DVS 25° C., cycle 1, target 5.0 % P/Po
# [6] = DVS 25° C., cycle 1, target 10.0 % P/Po
# [7] = DVS 25° C., cycle 1, target 15.0 % P/Po
# [8] = DVS 25° C., cycle 1, target 20.0 % P/Po
# [9] = DVS 25° C., cycle 1, target 25.0 % P/Po
# [10] = DVS 25° C., cycle 1, target 30.0 % P/Po
# [11] = DVS 25° C., cycle 1, target 35.0 % P/Po
# [12] = DVS 25° C., cycle 1, target 40.0 % P/Po
# [13] = DVS 25° C., cycle 1, target 45.0 % P/Po
# [14] = DVS 25° C., cycle 1, target 50.0 % P/Po
# [15] = DVS 25° C., cycle 1, target 55.0 % P/Po
# [16] = DVS 25° C., cycle 1, target 60.0 % P/Po
# [17] = DVS 25° C., cycle 1, target 65.0 % P/Po
# [18] = DVS 25° C., cycle 1, target 70.0 % P/Po
# [19] = DVS 25° C., cycle 1, target 75.0 % P/Po
# [20] = DVS 25° C., cycle 1, target 80.0 % P/Po
# [21] = DVS 25° C., cycle 1, target 85.0 % P/Po
# [22] = DVS 25° C., cycle 1, target 90.0 % P/Po
# [23] = DVS 25° C., cycle 1, target 95.0 % P/Po
compound,measurement,setting,value
"CCOc1ccc(Cc2cc([C@@H]3O[C@H](CO)[C@@H](O)[C@H](O)[C@H]3O)ccc2Cl)cc1 [Form I, (2S,3R,4R,5S,6R)-2-[4-chloro-3-(4-ethoxybenzyl)phenyl]-6-(hydroxymethyl)tetrahydro-2H-pyran-3,4,5-triol, reference compound]","stability on storage (form transformation by XRPD, MDSC, TGA)",[1],stable
same,"stability on storage (form transformation by XRPD, MDSC, TGA)",[1]; listed as Dapagliflozin,no form transformation was detected
same,weight gain from 0 to 95% RH,"[2]; DVS 25° C., 0 to 95% RH",23.33%
same,"Change In Mass (%) - ref, Desorption",[2]; [4],10.18%
same,"Change In Mass (%) - ref, Sorption",[2]; [4],0.00%
same,"Change In Mass (%) - ref, Desorption",[2]; [5],10.26%
same,"Change In Mass (%) - ref, Hysteresis",[2]; [5],10.18%
same,"Change In Mass (%) - ref, Sorption",[2]; [5],0.09%
same,"Change In Mass (%) - ref, Desorption",[2]; [6],10.34%
same,"Change In Mass (%) - ref, Hysteresis",[2]; [6],10.20%
same,"Change In Mass (%) - ref, Sorption",[2]; [6],0.14%
same,"Change In Mass (%) - ref, Desorption",[2]; [7],10.42%
same,"Change In Mass (%) - ref, Hysteresis",[2]; [7],10.19%
same,"Change In Mass (%) - ref, Sorption",[2]; [7],0.23%
same,"Change In Mass (%) - ref, Desorption",[2]; [8],10.50%
same,"Change In Mass (%) - ref, Hysteresis",[2]; [8],10.20%
same,"Change In Mass (%) - ref, Sorption",[2]; [8],0.30%
same,"Change In Mass (%) - ref, Desorption",[2]; [9],10.58%
same,"Change In Mass (%) - ref, Hysteresis",[2]; [9],10.16%
same,"Change In Mass (%) - ref, Sorption",[2]; [9],0.41%
same,"Change In Mass (%) - ref, Desorption",[2]; [10],10.66%
same,"Change In Mass (%) - ref, Hysteresis",[2]; [10],10.10%
same,"Change In Mass (%) - ref, Sorption",[2]; [10],0.55%
same,"Change In Mass (%) - ref, Desorption",[2]; [11],10.74%
same,"Change In Mass (%) - ref, Hysteresis",[2]; [11],9.91%
same,"Change In Mass (%) - ref, Sorption",[2]; [11],0.83%
same,"Change In Mass (%) - ref, Desorption",[2]; [12],10.83%
same,"Change In Mass (%) - ref, Hysteresis",[2]; [12],9.65%
same,"Change In Mass (%) - ref, Sorption",[2]; [12],1.18%
same,"Change In Mass (%) - ref, Desorption",[2]; [13],10.97%
same,"Change In Mass (%) - ref, Hysteresis",[2]; [13],9.22%
same,"Change In Mass (%) - ref, Sorption",[2]; [13],1.75%
same,"Change In Mass (%) - ref, Desorption",[2]; [14],11.15%
same,"Change In Mass (%) - ref, Hysteresis",[2]; [14],8.85%
same,"Change In Mass (%) - ref, Sorption",[2]; [14],2.31%
same,"Change In Mass (%) - ref, Desorption",[2]; [15],11.35%
same,"Change In Mass (%) - ref, Hysteresis",[2]; [15],8.46%
same,"Change In Mass (%) - ref, Sorption",[2]; [15],2.89%
same,"Change In Mass (%) - ref, Desorption",[2]; [16],11.59%
same,"Change In Mass (%) - ref, Hysteresis",[2]; [16],8.05%
same,"Change In Mass (%) - ref, Sorption",[2]; [16],3.54%
same,"Change In Mass (%) - ref, Desorption",[2]; [17],11.95%
same,"Change In Mass (%) - ref, Hysteresis",[2]; [17],7.67%
same,"Change In Mass (%) - ref, Sorption",[2]; [17],4.27%
same,"Change In Mass (%) - ref, Desorption",[2]; [18],12.47%
same,"Change In Mass (%) - ref, Hysteresis",[2]; [18],7.53%
same,"Change In Mass (%) - ref, Sorption",[2]; [18],4.94%
same,"Change In Mass (%) - ref, Desorption",[2]; [19],13.23%
same,"Change In Mass (%) - ref, Hysteresis",[2]; [19],7.02%
same,"Change In Mass (%) - ref, Sorption",[2]; [19],6.21%
same,"Change In Mass (%) - ref, Desorption",[2]; [20],14.44%
same,"Change In Mass (%) - ref, Hysteresis",[2]; [20],5.71%
same,"Change In Mass (%) - ref, Sorption",[2]; [20],8.73%
same,"Change In Mass (%) - ref, Desorption",[2]; [21],16.99%
same,"Change In Mass (%) - ref, Hysteresis",[2]; [21],4.90%
same,"Change In Mass (%) - ref, Sorption",[2]; [21],12.09%
same,"Change In Mass (%) - ref, Desorption",[2]; [22],21.36%
same,"Change In Mass (%) - ref, Hysteresis",[2]; [22],4.66%
same,"Change In Mass (%) - ref, Sorption",[2]; [22],16.70%
same,"Change In Mass (%) - ref, Desorption",[2]; [23],23.33%
same,"Change In Mass (%) - ref, Sorption",[2]; [23],23.33%
same,appearance of sample after DVS testing,[2],thick gel
same,appearance of sample after DVS testing,[2]; listed as dapagliflozin Form I,thick gel-like material
same,hygroscopicity classification,[2]; based on DVS weight gain from 0 to 95% RH,very hygroscopic
same,form transformation after DVS test (XRPD),[3],an amorphous form (not containing the 32 deg peak) was detected
same,form transformation after DVS test (XRPD),[3]; listed as dapagliflozin Form I,the amorphous was found after testing DVS

# — patent publication US9006188B2, “Co-crystals of dapagliflozin” (Mapi Pharma Ltd., priority 2013, dated 2015)
